Test results taken from US9539260B2, “Dihydro-benzo-oxazine and dihydro-pyrido-oxazine derivatives” (Novartis AG, priority 2012, dated 2017).

Assays:
PI3K alpha = PI3K alpha (Homo sapiens (Human), UniProt P42336); experiment: Enzymatic PI3K alpha isoform inhibition (lipid kinase activity, Kinase-Glo luminescence); assay type: biochemical; details: Enzymatic assay
How it was run: (§1)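 IC50s derive from 4-parameter logistic fits of % inhibition across 8 concentrations (usually 10 to 0.003 μM). Lipid kinase reaction: PI3K (10 nM) plus phosphatidylinositol (5 μg/mL) started with 2 μM ATP, stopped near 50% ATP depletion; leftover ATP quantified by Kinase-Glo luminescence.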

PI3K delta = PI3K delta (Homo sapiens (Human), UniProt O00329); experiment: Enzymatic PI3K delta isoform inhibition (lipid kinase activity, Kinase-Glo luminescence); assay type: biochemical; details: Enzymatic assay
How it was run: as §1

Chain of PI3K alpha (P42336 other isoform, or with tags, fused parts or gaps): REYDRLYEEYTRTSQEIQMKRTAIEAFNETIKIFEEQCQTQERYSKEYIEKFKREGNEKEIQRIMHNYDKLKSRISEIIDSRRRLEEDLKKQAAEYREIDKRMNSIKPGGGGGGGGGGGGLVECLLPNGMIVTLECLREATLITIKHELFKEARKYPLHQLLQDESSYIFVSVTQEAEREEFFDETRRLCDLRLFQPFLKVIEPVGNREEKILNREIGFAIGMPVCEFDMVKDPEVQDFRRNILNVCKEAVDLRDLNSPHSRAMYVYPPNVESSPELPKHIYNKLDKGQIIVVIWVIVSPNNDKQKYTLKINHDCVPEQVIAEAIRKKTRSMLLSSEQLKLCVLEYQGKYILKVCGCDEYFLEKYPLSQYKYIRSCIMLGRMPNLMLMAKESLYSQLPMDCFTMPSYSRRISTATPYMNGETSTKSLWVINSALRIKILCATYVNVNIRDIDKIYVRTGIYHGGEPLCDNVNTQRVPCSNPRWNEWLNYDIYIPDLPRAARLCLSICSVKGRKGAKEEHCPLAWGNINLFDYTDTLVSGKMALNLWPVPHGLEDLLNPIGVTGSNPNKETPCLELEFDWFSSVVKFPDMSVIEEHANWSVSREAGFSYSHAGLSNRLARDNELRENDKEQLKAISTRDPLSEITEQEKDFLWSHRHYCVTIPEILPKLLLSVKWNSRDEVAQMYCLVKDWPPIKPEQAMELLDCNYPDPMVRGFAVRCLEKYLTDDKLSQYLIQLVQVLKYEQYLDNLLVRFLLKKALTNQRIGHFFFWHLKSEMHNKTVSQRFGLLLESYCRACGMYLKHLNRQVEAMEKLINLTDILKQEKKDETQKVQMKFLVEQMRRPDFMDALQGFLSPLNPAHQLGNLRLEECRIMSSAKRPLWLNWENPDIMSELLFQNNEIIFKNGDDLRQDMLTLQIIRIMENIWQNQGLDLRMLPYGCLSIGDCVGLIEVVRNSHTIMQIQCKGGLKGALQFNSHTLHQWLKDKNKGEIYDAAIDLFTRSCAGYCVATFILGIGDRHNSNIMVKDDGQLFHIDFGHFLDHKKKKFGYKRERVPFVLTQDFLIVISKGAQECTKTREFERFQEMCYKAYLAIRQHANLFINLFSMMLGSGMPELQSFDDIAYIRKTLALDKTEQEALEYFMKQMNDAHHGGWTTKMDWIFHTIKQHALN
Chain of PI3K delta (O00329 other isoform, or with tags, fused parts or gaps linker GGGGGG): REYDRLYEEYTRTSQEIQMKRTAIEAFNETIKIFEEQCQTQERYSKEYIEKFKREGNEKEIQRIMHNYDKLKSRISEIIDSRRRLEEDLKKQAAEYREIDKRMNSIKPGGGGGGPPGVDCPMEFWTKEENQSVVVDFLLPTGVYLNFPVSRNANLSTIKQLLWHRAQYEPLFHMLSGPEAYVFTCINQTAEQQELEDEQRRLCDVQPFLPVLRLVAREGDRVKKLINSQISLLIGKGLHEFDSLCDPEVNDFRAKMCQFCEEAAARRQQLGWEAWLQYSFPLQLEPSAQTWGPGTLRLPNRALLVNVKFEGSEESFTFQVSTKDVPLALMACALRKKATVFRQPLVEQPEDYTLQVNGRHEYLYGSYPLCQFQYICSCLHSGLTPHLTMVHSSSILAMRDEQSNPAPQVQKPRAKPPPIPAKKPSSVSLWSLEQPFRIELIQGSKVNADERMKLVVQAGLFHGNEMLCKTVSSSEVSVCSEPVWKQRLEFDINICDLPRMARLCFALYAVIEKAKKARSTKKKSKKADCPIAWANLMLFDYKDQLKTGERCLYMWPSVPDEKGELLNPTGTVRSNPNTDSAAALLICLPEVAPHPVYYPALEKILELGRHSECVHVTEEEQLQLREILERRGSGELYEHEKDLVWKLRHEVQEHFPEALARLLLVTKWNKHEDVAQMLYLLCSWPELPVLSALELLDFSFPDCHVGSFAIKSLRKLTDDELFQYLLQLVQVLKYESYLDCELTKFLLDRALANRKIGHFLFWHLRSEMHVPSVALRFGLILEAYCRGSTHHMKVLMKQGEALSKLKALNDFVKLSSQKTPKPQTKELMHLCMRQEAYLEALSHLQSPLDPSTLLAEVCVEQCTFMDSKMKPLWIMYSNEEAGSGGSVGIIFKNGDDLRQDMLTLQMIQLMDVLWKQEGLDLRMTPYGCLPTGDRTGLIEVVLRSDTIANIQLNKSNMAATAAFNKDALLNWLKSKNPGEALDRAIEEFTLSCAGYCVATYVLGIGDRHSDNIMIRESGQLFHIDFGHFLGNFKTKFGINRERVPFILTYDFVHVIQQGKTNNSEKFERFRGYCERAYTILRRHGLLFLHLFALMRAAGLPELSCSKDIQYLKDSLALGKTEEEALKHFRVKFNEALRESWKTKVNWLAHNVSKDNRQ

Question: CCOc1ncc(N2CCOc3ccc(O[C@H]4CCN(C(=O)C5CCS(=O)(=O)CC5)C4)cc32)cc1C [Example B17, (1,1-Dioxo-hexahydro-1lambda*6*-thiopyran-4-yl)-{(S)-3-[4-(6-ethoxy-5-methyl-pyridin-3-yl)-3,4-dihydro-2H-benzo[1,4]oxazin-6-yloxy]-pyrrolidin-1-yl}-methanone] was tested. Which IC50 (PI3K alpha) did it give?
Answer: The IC50 was 2.09 µM.

Question: What about the IC50 (PI3K delta) of the same compound?
Answer: Its IC50 is 0.023 µM.

Question: What does the source list for COc1ncc(N2CCOc3ccc(O[C@H]4CCN(C(=O)C5CCOCC5)C4)cc32)cc1F [Example B18]?
Answer: IC50 (PI3K alpha): 0.723 µM; IC50 (PI3K delta): 0.012 µM

Question: Which results are given for CCc1cc(N2CCOc3ccc(O[C@H]4CCN(C(=O)C5CCS(=O)(=O)CC5)C4)cc32)cnc1OC [Example B19, (1,1-Dioxo-hexahydro-1lambda*6*-thiopyran-4-yl)-{(S)-3-[4-(5-ethyl-6-methoxy-pyridin-3-yl)-3,4-dihydro-2H-benzo[1,4]oxazin-6-yloxy]-pyrrolidin-1-yl}-methanone]?
Answer: IC50 (PI3K alpha): 1.16 µM; IC50 (PI3K delta): 0.033 µM

Question: COc1ncc(N2CCOc3ccc(O[C@H]4CCN(C(=O)c5cnn(C)c5)C4)cc32)cc1C [Example B20, {(S)-3-[4-(6-Methoxy-5-methyl-pyridin-3-yl)-3,4-dihydro-2H-benzo[1,4]oxazin-6-yloxy]-pyrrolidin-1-yl}-(1-methyl-1H-pyrazol-4-yl)-methanone] was tested. Which IC50 (PI3K alpha) did it give?
Answer: Its IC50 is 0.339 µM.

Question: And the IC50 (PI3K delta)?
Answer: The IC50 was 0.047 µM.

Question: Which results are given for COc1ncc(N2CCOc3ccc(O[C@H]4CCN(C(=O)c5ccn(C)n5)C4)cc32)cc1C [Example B21, {(S)-3-[4-(6-Methoxy-5-methyl-pyridin-3-yl)-3,4-dihydro-2H-benzo[1,4]oxazin-6-yloxy]-pyrrolidin-1-yl}-(1-methyl-1H-pyrazol-3-yl)-methanone]?
Answer: IC50 (PI3K alpha): 0.666 µM; IC50 (PI3K delta): 0.013 µM

Question: Cc1cc(N2CCOc3ccc(O[C@H]4CCN(C(=O)c5ccncc5)C4)cc32)cnc1S(C)(=O)=O [Example B22, {(S)-3-[4-(6-Methanesulfonyl-5-methyl-pyridin-3-yl)-3,4-dihydro-2H-benzo[1,4]oxazin-6-yloxy]-pyrrolidin-1-yl}-pyridin-4-yl-methanone] was tested. Which IC50 (PI3K alpha) did it give?
Answer: Its IC50 is 0.589 µM.

Question: What about the IC50 (PI3K delta) of the same compound?
Answer: The IC50 was 0.005 µM.

Question: Cc1cc(N2CCOc3ccc(O[C@H]4CCN(C(=O)c5cncnc5)C4)cc32)cnc1S(C)(=O)=O [Example B23, {(S)-3-[4-(6-Methanesulfonyl-5-methyl-pyridin-3-yl)-3,4-dihydro-2H-benzo[1,4]oxazin-6-yloxy]-pyrrolidin-1-yl}-pyrimidin-5-yl-methanone] was tested. Which IC50 (PI3K alpha) did it give?
Answer: Its IC50 is 1 µM.

Question: And the IC50 (PI3K delta)?
Answer: Its IC50 is 0.028 µM.

Question: How did the IC50 (PI3K alpha) turn out when Cc1cc(N2CCOc3ccc(O[C@H]4CCN(C(=O)c5cocn5)C4)cc32)cnc1S(C)(=O)=O [Example B24, {(S)-3-[4-(6-Methanesulfonyl-5-methyl-pyridin-3-yl)-3,4-dihydro-2H-benzo[1,4]oxazin-6-yloxy]-pyrrolidin-1-yl}-oxazol-4-yl-methanone] was run?
Answer: The IC50 was 0.212 µM.

Question: What about the IC50 (PI3K delta) of the same compound?
Answer: Its IC50 is 0.008 µM.

Question: How did the IC50 (PI3K alpha) turn out when Cc1cc(N2CCOc3ccc(O[C@H]4CCN(C(=O)c5cnco5)C4)cc32)cnc1S(C)(=O)=O [Example B25, {(S)-3-[4-(6-Methanesulfonyl-5-methyl-pyridin-3-yl)-3,4-dihydro-2H-benzo[1,4]oxazin-6-yloxy]-pyrrolidin-1-yl}-oxazol-5-yl-methanone] was run?
Answer: Its IC50 is 0.665 µM.

Question: And the IC50 (PI3K delta)?
Answer: Its IC50 is 0.04 µM.

Question: For Cc1cc(N2CCOc3ccc(O[C@H]4CCN(C(=O)C5CCOC(C)(C)C5)C4)cc32)cnc1S(C)(=O)=O (stereo partly drawn) [Example B26, (2,2-Dimethyl-tetrahydro-pyran-4-yl)-{(S)-3-[4-(6-methanesulfonyl-5-methyl-pyridin-3-yl)-3,4-dihydro-2H-benzo[1,4]oxazin-6-yloxy]-pyrrolidin-1-yl}-methanone], which IC50 (PI3K alpha) is on record?
Answer: The IC50 was 0.281 µM.

Question: And the IC50 (PI3K delta)?
Answer: Its IC50 is under 0.009 µM.

Question: What does the source list for CC(C)S(=O)(=O)c1cncc(N2CCOc3ccc(O[C@H]4CCN(C(=O)C5CCS(=O)(=O)CC5)C4)cc32)c1 [Example B29, (1,1-Dioxo-hexahydro-1lambda*6*-thiopyran-4-yl)-((S)-3-{4-[5-(propane-2-sulfonyl)-pyridin-3-yl]-3,4-dihydro-2H-benzo[1,4]oxazin-6-yloxy}-pyrrolidin-1-yl)-methanone]?
Answer: IC50 (PI3K alpha): 0.558 µM; IC50 (PI3K delta): 0.041 µM
